How the values were obtained:
[1] = molecular target: T1, PI3K beta (Homo sapiens, UniProt P42338); test: PI3K beta enzymatic assay (Kinase-Glo luminescence); type: biochemical; conditions: Enzymatic Data
T1 construct: for the full-length p110-b subunit are generated and fused by overlapping PCR; p85(iSH2) fusion partner (same polypeptide; see partner chain) (N); Gly linker (N); His tag (C); made in house; host or cells: baculovirus; Tn5 (Trichoplusia ni) or TiniPro insect cells
How it was run: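 Full-length p110β with p85 iSH2 (His-tagged) at 25 nM, 10 μg/mL phosphatidylinositol and 1 μM ATP, in pH 7.5 Tris with 3 mM MgCl2, 60 min at room temperature. Remaining ATP read by Kinase-Glo luminescence; IC50 from 4-parameter logistic fit over 8 concentrations.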

[2] = molecular target: T2, PI3K gamma (Homo sapiens, UniProt P48736); test: PI3K gamma enzymatic assay (Kinase-Glo luminescence); type: biochemical; conditions: Enzymatic Data
T2 construct: His tag (C); made in house; host or cells: construct from Roger Williams lab (MRC LMB); baculovirus (pVL1393); Tn5 (Trichoplusia ni) or TiniPro insect cells
T2 sequence (P48736 144-1102 limits assumed): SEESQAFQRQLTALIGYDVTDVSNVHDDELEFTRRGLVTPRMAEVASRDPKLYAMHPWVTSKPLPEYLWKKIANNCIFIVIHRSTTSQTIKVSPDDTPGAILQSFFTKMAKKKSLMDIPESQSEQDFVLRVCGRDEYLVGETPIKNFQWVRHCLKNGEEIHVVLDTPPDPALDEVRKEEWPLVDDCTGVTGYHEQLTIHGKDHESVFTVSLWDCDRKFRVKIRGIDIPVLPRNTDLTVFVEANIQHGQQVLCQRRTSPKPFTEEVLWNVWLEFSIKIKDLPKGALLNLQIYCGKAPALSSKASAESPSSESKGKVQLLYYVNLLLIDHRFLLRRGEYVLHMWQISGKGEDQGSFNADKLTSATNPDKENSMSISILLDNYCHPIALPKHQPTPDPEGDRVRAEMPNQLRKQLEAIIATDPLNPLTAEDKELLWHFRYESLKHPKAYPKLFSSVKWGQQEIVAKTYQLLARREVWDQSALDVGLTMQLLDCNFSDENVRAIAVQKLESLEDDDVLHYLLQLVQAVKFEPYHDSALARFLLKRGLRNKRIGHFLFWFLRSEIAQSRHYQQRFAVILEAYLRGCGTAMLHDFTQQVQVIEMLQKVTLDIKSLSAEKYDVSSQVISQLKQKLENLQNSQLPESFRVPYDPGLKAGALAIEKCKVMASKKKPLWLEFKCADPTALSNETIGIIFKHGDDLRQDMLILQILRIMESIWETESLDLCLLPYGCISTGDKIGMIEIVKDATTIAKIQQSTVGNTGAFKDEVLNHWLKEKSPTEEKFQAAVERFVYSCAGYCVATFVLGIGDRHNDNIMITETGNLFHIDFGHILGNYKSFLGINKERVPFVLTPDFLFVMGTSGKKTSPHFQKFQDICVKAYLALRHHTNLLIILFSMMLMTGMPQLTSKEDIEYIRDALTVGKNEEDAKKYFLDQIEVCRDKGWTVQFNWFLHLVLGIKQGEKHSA
How it was run: (§1)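 Kinase-Glo ATP-depletion luminescence with 1 μM ATP and 10 μg/mL phosphatidylinositol in pH 7.5 Tris buffer; 10 nM PI3Kα incubated 60 min, 150 nM PI3Kγ 120 min, at room temperature. IC50 by 4-parameter logistic fit over 8 concentrations.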

[3] = molecular target: T3, PI3K delta (Homo sapiens, UniProt O00329); test: PI3K delta enzymatic assay (Kinase-Glo luminescence); type: biochemical; conditions: Enzymatic Data
T3 construct: for the full-length p110-d subunit are generated and fused by overlapping PCR; p85(iSH2) fusion partner (same polypeptide; see partner chain) (N); Gly linker (N); His tag (C); made in house; host or cells: baculovirus; Tn5 (Trichoplusia ni) or TiniPro insect cells
T3 sequence (O00329 with tags, fused parts or gaps limits assumed): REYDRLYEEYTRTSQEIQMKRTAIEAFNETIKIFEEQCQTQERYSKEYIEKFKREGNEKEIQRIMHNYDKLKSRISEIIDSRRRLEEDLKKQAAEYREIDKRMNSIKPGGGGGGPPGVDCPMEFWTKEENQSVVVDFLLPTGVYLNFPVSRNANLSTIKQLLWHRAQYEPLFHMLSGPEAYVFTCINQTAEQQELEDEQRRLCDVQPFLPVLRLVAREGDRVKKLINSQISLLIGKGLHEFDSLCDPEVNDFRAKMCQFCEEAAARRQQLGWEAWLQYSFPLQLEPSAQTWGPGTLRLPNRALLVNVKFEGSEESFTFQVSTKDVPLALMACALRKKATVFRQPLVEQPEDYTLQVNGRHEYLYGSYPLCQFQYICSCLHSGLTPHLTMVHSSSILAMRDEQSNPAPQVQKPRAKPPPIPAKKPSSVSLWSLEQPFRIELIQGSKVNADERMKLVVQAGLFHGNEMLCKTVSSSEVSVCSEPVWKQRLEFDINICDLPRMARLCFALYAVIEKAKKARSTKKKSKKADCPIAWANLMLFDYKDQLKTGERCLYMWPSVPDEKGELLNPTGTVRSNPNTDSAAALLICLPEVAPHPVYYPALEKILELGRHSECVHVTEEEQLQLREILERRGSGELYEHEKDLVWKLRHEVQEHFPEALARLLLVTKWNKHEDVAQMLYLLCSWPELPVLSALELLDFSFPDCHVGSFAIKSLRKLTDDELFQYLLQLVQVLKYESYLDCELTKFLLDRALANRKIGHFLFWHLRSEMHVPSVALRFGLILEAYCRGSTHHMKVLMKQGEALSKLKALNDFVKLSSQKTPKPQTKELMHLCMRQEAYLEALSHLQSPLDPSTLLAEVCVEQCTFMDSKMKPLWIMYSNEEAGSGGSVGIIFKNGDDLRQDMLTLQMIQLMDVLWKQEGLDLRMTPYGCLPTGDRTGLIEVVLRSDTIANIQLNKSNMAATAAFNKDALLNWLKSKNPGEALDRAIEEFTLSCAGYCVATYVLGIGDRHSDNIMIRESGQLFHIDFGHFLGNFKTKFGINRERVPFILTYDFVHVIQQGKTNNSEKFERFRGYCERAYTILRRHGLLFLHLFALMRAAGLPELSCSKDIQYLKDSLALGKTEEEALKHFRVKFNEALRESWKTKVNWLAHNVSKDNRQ
How it was run: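 10 nM PI3Kδ p85(iSH2)-Gly linker-full-length p110δ His-tagged construct with 10 µg/mL phosphatidylinositol and 1 µM ATP. Buffer: 10 mM Tris pH 7.5, 3 mM MgCl2, 50 mM NaCl, 0.05% CHAPS, 1 mM DTT; 60 min RT. Kinase-Glo luminescence; IC50 from 4-parameter logistic fit over 8 concentrations.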

[4] = molecular target: T4, PI3K alfa (Homo sapiens, UniProt P42336); test: PI3K alfa enzymatic assay (Kinase-Glo luminescence); type: biochemical; conditions: Enzymatic Data
T4 construct: p85(iSH2) fusion partner (same polypeptide; see partner chain) (N); 12x Gly linker (N); His tag (C); made in house; host or cells: baculovirus; Tn5 (Trichoplusia ni) or TiniPro insect cells
T4 sequence (P42336 with tags, fused parts or gaps limits assumed): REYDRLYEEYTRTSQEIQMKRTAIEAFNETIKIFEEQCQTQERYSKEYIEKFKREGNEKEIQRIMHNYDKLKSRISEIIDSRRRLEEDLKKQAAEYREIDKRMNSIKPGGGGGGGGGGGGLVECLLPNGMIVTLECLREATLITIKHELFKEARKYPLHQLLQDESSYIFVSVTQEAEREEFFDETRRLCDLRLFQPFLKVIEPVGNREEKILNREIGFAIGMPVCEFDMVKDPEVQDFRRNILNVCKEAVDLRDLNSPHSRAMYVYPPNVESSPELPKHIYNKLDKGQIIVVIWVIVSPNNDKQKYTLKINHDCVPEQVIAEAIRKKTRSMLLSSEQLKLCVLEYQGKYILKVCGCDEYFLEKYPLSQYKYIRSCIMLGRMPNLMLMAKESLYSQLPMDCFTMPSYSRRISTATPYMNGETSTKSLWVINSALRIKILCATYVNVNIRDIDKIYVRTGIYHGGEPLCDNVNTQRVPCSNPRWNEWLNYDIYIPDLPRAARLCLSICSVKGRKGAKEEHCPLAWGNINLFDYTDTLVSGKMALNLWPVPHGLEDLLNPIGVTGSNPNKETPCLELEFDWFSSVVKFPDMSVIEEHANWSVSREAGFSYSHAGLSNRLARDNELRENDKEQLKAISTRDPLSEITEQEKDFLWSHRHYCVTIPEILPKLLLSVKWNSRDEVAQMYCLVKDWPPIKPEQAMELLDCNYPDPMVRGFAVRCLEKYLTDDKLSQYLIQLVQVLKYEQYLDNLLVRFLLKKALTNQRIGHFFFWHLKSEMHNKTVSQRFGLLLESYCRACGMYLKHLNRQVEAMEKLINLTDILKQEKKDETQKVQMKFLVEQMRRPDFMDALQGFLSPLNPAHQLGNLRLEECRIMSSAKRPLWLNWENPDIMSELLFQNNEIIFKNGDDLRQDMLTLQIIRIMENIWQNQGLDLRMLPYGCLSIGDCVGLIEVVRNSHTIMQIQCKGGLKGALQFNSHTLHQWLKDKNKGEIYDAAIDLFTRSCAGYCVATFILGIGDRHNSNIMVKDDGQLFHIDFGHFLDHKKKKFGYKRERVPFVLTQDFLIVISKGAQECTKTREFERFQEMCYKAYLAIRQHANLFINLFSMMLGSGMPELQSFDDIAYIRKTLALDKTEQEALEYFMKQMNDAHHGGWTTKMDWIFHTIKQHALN
How it was run: as §1

T1 sequence (P42338 with tags, fused parts or gaps limits assumed): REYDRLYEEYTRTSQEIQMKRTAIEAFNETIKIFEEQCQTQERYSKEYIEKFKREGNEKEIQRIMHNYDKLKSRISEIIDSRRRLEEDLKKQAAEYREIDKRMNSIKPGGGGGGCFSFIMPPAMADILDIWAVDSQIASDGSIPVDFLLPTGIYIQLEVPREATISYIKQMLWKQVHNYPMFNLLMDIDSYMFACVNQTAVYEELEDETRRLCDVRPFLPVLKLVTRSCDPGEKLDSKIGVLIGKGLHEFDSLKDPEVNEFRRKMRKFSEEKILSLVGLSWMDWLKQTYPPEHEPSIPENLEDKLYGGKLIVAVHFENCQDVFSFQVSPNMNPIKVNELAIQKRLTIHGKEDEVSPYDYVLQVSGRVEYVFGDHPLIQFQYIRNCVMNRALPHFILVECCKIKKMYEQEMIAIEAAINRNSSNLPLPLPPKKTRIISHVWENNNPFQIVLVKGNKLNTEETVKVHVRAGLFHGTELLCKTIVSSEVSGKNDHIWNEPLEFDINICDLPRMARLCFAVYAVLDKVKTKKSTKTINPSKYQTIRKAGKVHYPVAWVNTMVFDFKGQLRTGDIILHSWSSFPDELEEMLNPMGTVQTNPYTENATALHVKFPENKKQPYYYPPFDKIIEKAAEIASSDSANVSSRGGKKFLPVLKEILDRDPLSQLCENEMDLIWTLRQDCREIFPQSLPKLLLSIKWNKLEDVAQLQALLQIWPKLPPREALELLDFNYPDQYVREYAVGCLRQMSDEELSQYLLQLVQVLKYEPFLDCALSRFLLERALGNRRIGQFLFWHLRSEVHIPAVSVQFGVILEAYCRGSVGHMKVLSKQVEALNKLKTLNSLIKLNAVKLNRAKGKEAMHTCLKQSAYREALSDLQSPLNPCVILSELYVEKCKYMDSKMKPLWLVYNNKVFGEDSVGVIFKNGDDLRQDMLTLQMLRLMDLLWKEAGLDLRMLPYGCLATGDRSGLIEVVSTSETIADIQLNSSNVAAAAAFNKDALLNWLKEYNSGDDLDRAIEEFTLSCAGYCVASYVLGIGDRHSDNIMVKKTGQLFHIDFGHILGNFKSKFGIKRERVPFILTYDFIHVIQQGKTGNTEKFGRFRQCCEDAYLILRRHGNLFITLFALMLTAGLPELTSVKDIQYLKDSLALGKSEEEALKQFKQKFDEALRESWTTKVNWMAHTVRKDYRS

## COC(=O)NC1(COc2ccc(-c3ccc4nc(C)c(-c5cnc(N)c(C(F)(F)F)c5)n4n3)cc2)COC1 [Example 115, (3-{4-[3-(6-Amino-5-trifluoromethyl-pyridin-3-yl)-2-methyl-imidazo[1,2-b]pyridazin-6-yl]-phenoxymethyl}-oxetan-3-yl)-carbamic acid methyl ester]
[1]
  IC50: > 9100 nM
[2]
  IC50: 3160 nM
other
  melting point: 202 to 204 °C
[3]
  IC50: 1970 nM
[4]
  IC50: 295 nM

## Cc1nc2ccc(-c3ccc(OCC4(NC(=O)C(F)(F)F)COC4)cc3)nn2c1-c1cnc(N)c(C(F)(F)F)c1 [Example 116, N-(3-{4-[3-(6-Amino-5-trifluoromethyl-pyridin-3-yl)-2-methyl-imidazo[1,2-b]pyridazin-6-yl]-phenoxymethyl}-oxetan-3-yl)-2,2,2-trifluoro-acetamide]
[1]
  IC50: 4240 nM
[2]
  IC50: 4660 nM
other
  melting point: 214 to 216 °C
[3]
  IC50: 937 nM
[4]
  IC50: 59 nM

## Cc1nc2ccc(-c3ccc(OCC4(NC(=O)C5CC5)COC4)cc3)nn2c1-c1cnc(N)c(C(F)(F)F)c1 [Example 110, Cyclopropanecarboxylic acid (3-{4-[3-(6-amino-5-trifluoromethyl-pyridin-3-yl)-2-methyl-imidazo[1,2-b]pyridazin-6-yl]-phenoxymethyl}-oxetan-3-yl)-amide]
[1]
  IC50: 8190 nM
[2]
  IC50: 2080 nM
other
  melting point: 191 to 193 °C
[3]
  IC50: 1590 nM
[4]
  IC50: 126 nM

## Cc1nc2ccc(-c3ccc(OCC4(N)COC4)cc3)nn2c1-c1cnc(N)c(C(F)(F)F)c1 [Example 111, 5-{6-[4-(3-Amino-oxetan-3-ylmethoxy)-phenyl]-2-methyl-imidazo[1,2-b]pyridazin-3-yl}-3-trifluoromethyl-pyridin-2-ylamine]
[1]
  IC50: 2390 nM
[2]
  IC50: 1190 nM
other
  melting point: 198 to 200 °C
[3]
  IC50: 895 nM
[4]
  IC50: 131 nM

## COc1cc(-c2ccc3nc(C)c(-c4cnc(N)c(C(F)(F)F)c4)n3n2)ccc1OCCCNC(=O)C(F)(F)F [Example 85, N-(3-{4-[3-(6-Amino-5-trifluoromethyl-pyridin-3-yl)-2-methyl-imidazo[1,2-b]pyridazin-6-yl]-2-methoxy-phenoxy}-propyl)-2,2,2-trifluoro-acetamide]
[1]
  IC50: > 9100 nM
[2]
  IC50: 2590 nM
[3]
  IC50: 3490 nM
[4]
  IC50: 244 nM

## COc1ccc(-c2ccc3nc(C)c(-c4ccn(S(=O)(=O)c5ccc(C#N)cc5)n4)n3n2)cc1OC [Example 21, 4-{3-[6-(3,4-Dimethoxy-phenyl)-2-methyl-imidazo[1,2-b]pyridazin-3-yl]-pyrazole-1-sulfonyl}-benzonitrile]
[1]
  IC50: > 9100 nM
[2]
  IC50: 655 nM
[3]
  IC50: 406 nM
[4]
  IC50: 408 nM

## CCOc1ccc(-c2ccc3nc(C)c(-c4ccc(N5CCOCC5)nc4)n3n2)cc1OC [Example 14, 6-(4-Ethoxy-3-methoxy-phenyl)-2-methyl-3-(6-morpholin-4-yl-pyridin-3-yl)-imidazo[1,2-b]pyridazine]
[1]
  IC50: 5150 nM
[2]
  IC50: 688 nM
[3]
  IC50: 2050 nM
[4]
  IC50: 138 nM

## COc1ccc(-c2ccc3nc(C)c(-c4cnc(N)c(C(F)(F)F)c4)n3n2)cc1OC [Example 15, 5-[6-(3,4-Dimethoxy-phenyl)-2-methyl-imidazo[1,2-b]pyridazin-3-yl]-3-trifluoromethyl-pyridin-2-ylamine]
[1]
  IC50: 150 nM
[2]
  IC50: 157 nM
[3]
  IC50: 69 nM
[4]
  IC50: 5.9 nM

## COCCOCCOCCOc1ccc(-c2ccc3nc(C)c(-c4cnc(N)c(C(F)(F)F)c4)n3n2)cc1OC [Example 84, 5-[6-(3-Methoxy-4-{2-[2-(2-methoxy-ethoxy)-ethoxy]-ethoxy}-phenyl)-2-methyl-imidazo[1,2-b]pyridazin-3-yl]-3-trifluoromethyl-pyridin-2-ylamine]
[1]
  IC50: > 9100 nM
[2]
  IC50: 65 nM
[3]
  IC50: 174 nM
[4]
  IC50: 40 nM
